Assay [1] relates to prostate gland (PG) in rats with the benign prostatic hyperplasia (BPH). The format is in vivo. Particulars: for MF PG (mass factor of the PG) / Mass of PG, mg At end of experiment / Mass of PG, mg Initial: rats with BPH. How it is done: The effect of the new mixtures of peptides on the mass of the prostate of rats in the model of benign prostate hyperplasia caused by testosterone propionate, was studied on 98 white non-pedigree male rats (mass 220-280 g at the beginning of the experiment), and 10 white non- pedigree male rats with a mass of 22-26 g (acute toxicity was assessed in those animals in a separate series o experiments).
J. Med. Food., 2007, Vol. 10, No 4, p. 628-635; Liu H.P., Chen G.L., Liu P., Xu X.P. «Amlodipine alone or combined with terazosin improves lower urinary tract disorder in rat models of benign prostatic hyperplasia or detrusor instability: focus on detrusor overactivity". BJU Int., 2009, Vol. 104, No 11, p. 1752-1757).
(§1) The animals in those groups were injected intramuscularly (i/m) a mixture of peptides in doses of 50, 150 and 600 mcg/kg/day, alpha1-adrenergic blocker Doxazosin (Zoxon, Zentiva a.s., Czech Republic) in the dose of 1 mg/kg/day and 2nd type 5 alpha-reductase inhibitor Finasteride (Proscar, Merck Sharp & Dohme, The Netherlands) in the dose of 10 mg/kg/day in the stomach (via an intragastral sonde) for 18 days (from day 4), and also the well-known homeopathic drug Prostatine (OOO «Homeofarma», Russia) with 5 pellets into the stomach for 18 days. The rats in the control group received intramuscularly only an isotonic solution of sodium chloride (NaCl) in equivolume quantities.
Extraction of the prostatic gland (PG) for morphological (light-optical) analysis was done both before and after the reproduction of BPH (on days 22 and 23). The rats were decapitated under general anesthesia with ether, following which the prostatic gland was extracted and weighed (analytical balance «Sartogosm LV 120-A», Russia, inaccuracy-0.5 mg).

The subject of assay [2] is prostate gland of rats with BPH. The experiment in a line: Morphological and morphometric (light-optical) analysis of the prostate gland in the rat BPH model. The format is in vivo. On the set-up: key to COLL (score estimate of the content of collagen in the stroma, median): 0: Absent in the field of vision; 1: Thin friable fibers; 2: Thin oriented bunches; 3: Dense interlayers; 4: Zones of fibrosis. Particulars: for EPIT (volume fraction of the epithelium) / LUMEN (volume fraction of acinar lumens) / STROMA (volume fraction of stroma): mean ± standard error of the mean.
Text: The material was subjected to standard histological processing in accordance with Example 2. Sections were stained according to Van Gieson, as well as with hematoxyline and eosin. In addition to the morphological description of the preparations, a quantitative analysis of the most important morphological parameters of the PG (Table 2) to assess the dynamics of morphological changes. The prostate's functional status (fibrosis, epithelium hyperplasia, retention of the prostatic fluid in acinuses) can be assessed using the epithelium/stroma and epithelium/duct indices. Table 2. Classes of morphological analysis
The morphometric analysis was conducted using a Leica DM2500 microscope fitted with a digital photographic camera. The digital images were used to assess structural changes in PG tissues. Volume fractions of acinuses, stroma and epithelium were defined by point counting. Scoring was used to more accurately determine the quantity of collagen fibers because of their small percentage share (around 1-2%) (Table 3). Table 3. The criteria for scoring the quantity of collagen fibers
A comparison of the groups in terms of different parameters using the Kruskal-Wallis one-way analysis of variance by ranks, Dan and Wilcoxon-Mann-Whitney test data were obtained on intergroup differences at the set level of significance of p < 0,05. […]
as §1
The material was subjected to standard histological processing. For light-optical analysis, pieces of the PG were fixed with 10% neutral formalin, following which histological sections were prepared. The sections were stained according to Van Gieson, and also with hematoxyline and eosin. In addition to morphological description of the microsections, a quantitative evaluation of the most important morphological parameters of the PG for the purpose of objective assessment of the dynamics of morphological changes. A Leica DM2500 microscope with a digital photographic camera was used for morphometric analysis. The digital images were used to assess structural changes in the PG's tissues.

The next assay concerns prostate. Particulars: after 1 to 3 months; cited from earlier work.
Setting [3] is: 10 mg/kg/day in stomach for 18 days.
[4] abbreviates: 1 mg/kg/day in stomach for 18 days.

Read-outs that look alike come from different tables or passages of the source.

Here are results for three molecules from patent EP2921176A2, “PHARMACEUTICAL COMPOSITION FOR TREATMENT OF PROSTATIC HYPERPLASIA” (priority 2012, dated 2014).

As for `CC(C)(C)NC(=O)[C@H]1CC[C@H]2[C@@H]3CC[C@H]4NC(=O)C=C[C@]4(C)[C@H]3CC[C@]12C` [Finasteride], the “reduced the mass of the PG (times, compared to the control)” value in assay [1] (10 mg/kg/day in stomach for 18 days, p<0,05) amounted to 1.4 times. In assay [1] (setting [3]), the “MF PG (mass factor of the PG)” value was 65±5 mg/100 r mass of the rat; the “Mass of PG, mg At end of experiment” value amounted to 6.5e+10 ± 5e+09 pg; the “Mass of PG, mg Initial” value worked out at 1.99e+11 ± 1.4e+10 pg. In assay [2] (setting [3]), the “COLL (score estimate of the content of collagen in the stroma, median)” value is reported as 1; the “EPIT/LUMEN (ratio of share of epithelium to share of acinar lumens)” value was 47.31 ± 1.49; the “EPIT/STR (ratio of share of epithelium to share of stroma)” value is listed as 53.41 ± 1.55; the “morphological picture of stroma” value is listed as “highly edemous”. For the same molecule, in assay [2] (setting [3]), the “structure (morphology) of epithelium” value was “caused injury and death of epithelial cells”; the “EPIT (volume fraction of the epithelium)” value is reported as 20.06 ± 0.95%; the “LUMEN (volume fraction of acinar lumens)” value is on record as 42.40 ± 1.17%; the “STROMA (volume fraction of stroma)” value is reported as 37.55 ± 1.14%.

With `COc1cc2nc(N3CCN(C(=O)C4COc5ccccc5O4)CC3)nc(N)c2cc1OC` (stereo not drawn) [Doxazosin], in assay [1] (setting [4]), the “Mass of PG, mg At end of experiment” value worked out at 7.7e+10 ± 7e+09 pg and the “Mass of PG, mg Initial” value turned out to be 2.38e+11 ± 1.8e+10 pg. Besides, in assay [1] (1 mg/kg/day in the stomach for 18 days), the “MF PG (mass factor of the PG)” value was “virtually unreduced”. Besides, in assay [2] (setting [4]), the “COLL (score estimate of the content of collagen in the stroma, median)” value is 2; the “EPIT/LUMEN (ratio of share of epithelium to share of acinar lumens)” value was 36.62 ± 1.19; the “EPIT/STR (ratio of share of epithelium to share of stroma)” value is recorded as 75.55 ± 1.34; the “morphological picture of stroma” value is “Inflammation and edema were completely absent in the Doxazosin group, but there were zones of fibrosis”. In addition, in assay [2] (setting [4]), the “structure (morphology) of epithelium” value is recorded as “acinuses covered with epithelium with normal morphology alternated with acinuses with hyperplastic epithelium”, the “EPIT (volume fraction of the epithelium)” value is reported as 19.79 ± 0.84%, the “LUMEN (volume fraction of acinar lumens)” value was 54.03 ± 1.05% and the “STROMA (volume fraction of stroma)” value is listed as 26.19 ± 0.93%.

With `C[C@]12C=CC(=O)N[C@@H]1CC[C@@H]1[C@@H]2CC[C@]2(C)[C@@H](C(=O)Nc3cc(C(F)(F)F)ccc3C(F)(F)F)CC[C@@H]12` [Dutasteride], the “reduction of the size of the prostate” value in the assay on prostate is reported as “more than 20%”.
